According to PubChem BioAssay AID330 (DTP/NCI, 2004):
Toxic doses and inconclusive results are not listed.

Tested on: P388 leukemia ip, CD2F1 mice, survival T/C
Experiment: NCI In Vivo Anticancer Drug Screen. Data for tumor model P388 Leukemia (intraperitoneal) in CD2F1 (CDF1) mice
Details: endpoint: median survival time, higher = longer survival
Procedure, shortened: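 Mice carrying the transplanted tumor received test compound or vehicle. Survival was recorded in each group, and the value is the treated-group measurement divided by that of the vehicle-treated control group.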

Structure (SMILES): O=C1NC(c2cccc3ccccc23)Nc2ccccc21 (configuration not stated)
- T/C (dose: 8.0 mg/kg/injection, schedule: Q03HX008 (ip), vehicle: Klucel (hydroxypropylcellulose) (HPC)): 118 % of control
- T/C (dose: 8.0 mg/kg/injection, schedule: Q03HX008 (ip), vehicle: other): 109 % of control
- T/C (dose: 8.0 mg/kg/injection, schedule: Q03HX008 (oral), vehicle: Klucel (hydroxypropylcellulose) (HPC)): 99 % of control
- T/C (dose: 8.0 mg/kg/injection, schedule: Q03HX008 (oral), vehicle: other): 100 % of control
- T/C (dose: 8.0 mg/kg/injection, schedule: Q03HX016 (ip), vehicle: Klucel (hydroxypropylcellulose) (HPC)): 124 % of control
- T/C (dose: 8.0 mg/kg/injection, schedule: Q03HX016 (ip), vehicle: other): 101 % of control
- T/C (dose: 8.0 mg/kg/injection, schedule: Q03HX016 (oral), vehicle: Klucel (hydroxypropylcellulose) (HPC)): 100 % of control
- T/C (dose: 8.0 mg/kg/injection, schedule: Q03HX016 (oral), vehicle: other): 114 % of control
- T/C (dose: 8.0 mg/kg/injection, schedule: Q03HX024 (ip), vehicle: other): 124 % of control
- T/C (dose: 8.0 mg/kg/injection, schedule: Q03HX024 (oral), vehicle: Klucel (hydroxypropylcellulose) (HPC)): 101 % of control
- T/C (dose: 8.0 mg/kg/injection, schedule: Q03HX024 (oral), vehicle: other): 108 % of control
- T/C (dose: 16.0 mg/kg/injection, schedule: Q01DX009 (ip), vehicle: Klucel (hydroxypropylcellulose) (HPC)): 155 % of control
- T/C (dose: 16.0 mg/kg/injection, schedule: Q01DX009 (ip), vehicle: other): 108 % of control
- T/C (dose: 16.0 mg/kg/injection, schedule: Q01DX009 (oral), vehicle: Klucel (hydroxypropylcellulose) (HPC)): 100 % of control
- T/C (dose: 16.0 mg/kg/injection, schedule: Q01DX009 (oral), vehicle: other): 100 % of control
- T/C (dose: 16.0 mg/kg/injection, schedule: Q01DX009 (sc), vehicle: Klucel (hydroxypropylcellulose) (HPC)): 106 % of control
- T/C (dose: 16.0 mg/kg/injection, schedule: Q01DX009 (sc), vehicle: other): 94 % of control
- T/C (dose: 16.0 mg/kg/injection, schedule: Q03HX008 (ip), vehicle: other): 117 % of control
- T/C (dose: 16.0 mg/kg/injection, schedule: Q03HX008 (oral), vehicle: Klucel (hydroxypropylcellulose) (HPC)): 95 % of control
- T/C (dose: 16.0 mg/kg/injection, schedule: Q03HX008 (oral), vehicle: other): 104 % of control
- T/C (dose: 16.0 mg/kg/injection, schedule: Q03HX016 (ip), vehicle: other): 123 % of control
- T/C (dose: 16.0 mg/kg/injection, schedule: Q03HX016 (oral), vehicle: Klucel (hydroxypropylcellulose) (HPC)): 102 % of control
- T/C (dose: 16.0 mg/kg/injection, schedule: Q03HX016 (oral), vehicle: other): 115 % of control
- T/C (dose: 16.0 mg/kg/injection, schedule: Q03HX024 (ip), vehicle: Klucel (hydroxypropylcellulose) (HPC)): 174 % of control
- T/C (dose: 16.0 mg/kg/injection, schedule: Q03HX024 (oral), vehicle: Klucel (hydroxypropylcellulose) (HPC)): 102 % of control
- T/C (dose: 32.0 mg/kg/injection, schedule: Q01DX009 (ip), vehicle: Klucel (hydroxypropylcellulose) (HPC)): 177 % of control
- T/C (dose: 32.0 mg/kg/injection, schedule: Q01DX009 (ip), vehicle: other): 102 % of control
- T/C (dose: 32.0 mg/kg/injection, schedule: Q01DX009 (oral), vehicle: Klucel (hydroxypropylcellulose) (HPC)): 102 % of control
- T/C (dose: 32.0 mg/kg/injection, schedule: Q01DX009 (oral), vehicle: other): 107 % of control
- T/C (dose: 32.0 mg/kg/injection, schedule: Q01DX009 (sc), vehicle: Klucel (hydroxypropylcellulose) (HPC)): 114 % of control
- T/C (dose: 32.0 mg/kg/injection, schedule: Q01DX009 (sc), vehicle: other): 117 % of control
- T/C (dose: 32.0 mg/kg/injection, schedule: Q03HX008 (ip), vehicle: Klucel (hydroxypropylcellulose) (HPC)): 173 % of control
- T/C (dose: 32.0 mg/kg/injection, schedule: Q03HX008 (oral), vehicle: Klucel (hydroxypropylcellulose) (HPC)): 99 % of control
- T/C (dose: 32.0 mg/kg/injection, schedule: Q03HX008 (oral), vehicle: other): 122 % of control
- T/C (dose: 32.0 mg/kg/injection, schedule: Q03HX016 (ip), vehicle: Klucel (hydroxypropylcellulose) (HPC)): 200 % of control
- T/C (dose: 32.0 mg/kg/injection, schedule: Q03HX016 (oral), vehicle: Klucel (hydroxypropylcellulose) (HPC)): 110 % of control
- T/C (dose: 32.0 mg/kg/injection, schedule: Q03HX024 (oral), vehicle: Klucel (hydroxypropylcellulose) (HPC)): 109 % of control
- T/C (dose: 32.0 mg/kg/injection, schedule: Q03HX024 (oral), vehicle: other): 168 % of control
- T/C (dose: 64.0 mg/kg/injection, schedule: Q01DX001 (ip), vehicle: Klucel (hydroxypropylcellulose) (HPC)): 113 % of control
- T/C (dose: 64.0 mg/kg/injection, schedule: Q01DX001 (ip), vehicle: other): 99 % of control
- T/C (dose: 64.0 mg/kg/injection, schedule: Q01DX001 (oral), vehicle: Klucel (hydroxypropylcellulose) (HPC)): 100 % of control
- T/C (dose: 64.0 mg/kg/injection, schedule: Q01DX001 (oral), vehicle: other): 94 % of control
- T/C (dose: 64.0 mg/kg/injection, schedule: Q01DX009 (ip), vehicle: Klucel (hydroxypropylcellulose) (HPC)): 194 % of control
- T/C (dose: 64.0 mg/kg/injection, schedule: Q01DX009 (ip), vehicle: other): 120 % of control
- T/C (dose: 64.0 mg/kg/injection, schedule: Q01DX009 (oral), vehicle: Klucel (hydroxypropylcellulose) (HPC)): 108 % of control
- T/C (dose: 64.0 mg/kg/injection, schedule: Q01DX009 (oral), vehicle: other): 118 % of control
- T/C (dose: 64.0 mg/kg/injection, schedule: Q03HX008 (oral), vehicle: Klucel (hydroxypropylcellulose) (HPC)): 108 % of control
- T/C (dose: 64.0 mg/kg/injection, schedule: Q03HX016 (oral), vehicle: Klucel (hydroxypropylcellulose) (HPC)): 116 % of control
- T/C (dose: 64.0 mg/kg/injection, schedule: Q03HX024 (oral), vehicle: Klucel (hydroxypropylcellulose) (HPC)): 119 % of control
- T/C (dose: 64.0 mg/kg/injection, schedule: Q04DX003 (ip), vehicle: Klucel (hydroxypropylcellulose) (HPC)): 118 % of control
- T/C (dose: 64.0 mg/kg/injection, schedule: Q04DX003 (ip), vehicle: other): 91 % of control
- T/C (dose: 64.0 mg/kg/injection, schedule: Q04DX003 (oral), vehicle: Klucel (hydroxypropylcellulose) (HPC)): 100 % of control
- T/C (dose: 64.0 mg/kg/injection, schedule: Q04DX003 (oral), vehicle: other): 117 % of control
- T/C (dose: 64.0 mg/kg/injection, schedule: Q04DX003 (sc), vehicle: Klucel (hydroxypropylcellulose) (HPC)): 113 % of control
- T/C (dose: 64.0 mg/kg/injection, schedule: Q04DX003 (sc), vehicle: other): 107 % of control
- T/C (dose: 64.0 mg/kg/injection, schedule: Q08DX002 (ip), vehicle: Klucel (hydroxypropylcellulose) (HPC)): 118 % of control
- T/C (dose: 64.0 mg/kg/injection, schedule: Q08DX002 (ip), vehicle: other): 100 % of control
- T/C (dose: 64.0 mg/kg/injection, schedule: Q08DX002 (oral), vehicle: Klucel (hydroxypropylcellulose) (HPC)): 102 % of control
- T/C (dose: 64.0 mg/kg/injection, schedule: Q08DX002 (oral), vehicle: other): 104 % of control
- T/C (dose: 128.0 mg/kg/injection, schedule: Q01DX001 (ip), vehicle: Klucel (hydroxypropylcellulose) (HPC)): 121 % of control
- T/C (dose: 128.0 mg/kg/injection, schedule: Q01DX001 (ip), vehicle: other): 104 % of control
- T/C (dose: 128.0 mg/kg/injection, schedule: Q01DX001 (oral), vehicle: Klucel (hydroxypropylcellulose) (HPC)): 99 % of control
- T/C (dose: 128.0 mg/kg/injection, schedule: Q01DX001 (oral), vehicle: other): 108 % of control
- T/C (dose: 128.0 mg/kg/injection, schedule: Q01DX009 (oral), vehicle: Klucel (hydroxypropylcellulose) (HPC)): 109 % of control
- T/C (dose: 128.0 mg/kg/injection, schedule: Q03HX008 (oral), vehicle: Klucel (hydroxypropylcellulose) (HPC)): 110 % of control
- T/C (dose: 128.0 mg/kg/injection, schedule: Q03HX016 (oral), vehicle: Klucel (hydroxypropylcellulose) (HPC)): 122 % of control
- T/C (dose: 128.0 mg/kg/injection, schedule: Q04DX003 (ip), vehicle: other): 109 % of control
- T/C (dose: 128.0 mg/kg/injection, schedule: Q04DX003 (oral), vehicle: Klucel (hydroxypropylcellulose) (HPC)): 105 % of control
- T/C (dose: 128.0 mg/kg/injection, schedule: Q04DX003 (oral), vehicle: other): 122 % of control
- T/C (dose: 128.0 mg/kg/injection, schedule: Q04DX003 (sc), vehicle: Klucel (hydroxypropylcellulose) (HPC)): 115 % of control
- T/C (dose: 128.0 mg/kg/injection, schedule: Q04DX003 (sc), vehicle: other): 114 % of control
- T/C (dose: 128.0 mg/kg/injection, schedule: Q08DX002 (ip), vehicle: other): 94 % of control
- T/C (dose: 128.0 mg/kg/injection, schedule: Q08DX002 (oral), vehicle: Klucel (hydroxypropylcellulose) (HPC)): 106 % of control
- T/C (dose: 256.0 mg/kg/injection, schedule: Q01DX001 (ip), vehicle: other): 105 % of control
- T/C (dose: 256.0 mg/kg/injection, schedule: Q01DX001 (oral), vehicle: Klucel (hydroxypropylcellulose) (HPC)): 101 % of control
- T/C (dose: 256.0 mg/kg/injection, schedule: Q01DX009 (oral), vehicle: Klucel (hydroxypropylcellulose) (HPC)): 116 % of control
- T/C (dose: 256.0 mg/kg/injection, schedule: Q01DX009 (sc), vehicle: Klucel (hydroxypropylcellulose) (HPC)): 91 % of control
- T/C (dose: 256.0 mg/kg/injection, schedule: Q04DX003 (ip), vehicle: Klucel (hydroxypropylcellulose) (HPC)): 168 % of control
- T/C (dose: 256.0 mg/kg/injection, schedule: Q04DX003 (ip), vehicle: other): 109 % of control
- T/C (dose: 256.0 mg/kg/injection, schedule: Q04DX003 (oral), vehicle: Klucel (hydroxypropylcellulose) (HPC)): 107 % of control
- T/C (dose: 256.0 mg/kg/injection, schedule: Q04DX003 (oral), vehicle: other): 95 % of control
- T/C (dose: 256.0 mg/kg/injection, schedule: Q04DX003 (sc), vehicle: Klucel (hydroxypropylcellulose) (HPC)): 122 % of control
- T/C (dose: 256.0 mg/kg/injection, schedule: Q08DX002 (ip), vehicle: other): 108 % of control
- T/C (dose: 256.0 mg/kg/injection, schedule: Q08DX002 (oral), vehicle: Klucel (hydroxypropylcellulose) (HPC)): 106 % of control
- T/C (dose: 512.0 mg/kg/injection, schedule: Q01DX001 (oral), vehicle: Klucel (hydroxypropylcellulose) (HPC)): 102 % of control
- T/C (dose: 512.0 mg/kg/injection, schedule: Q04DX003 (oral), vehicle: Klucel (hydroxypropylcellulose) (HPC)): 116 % of control
- T/C (dose: 512.0 mg/kg/injection, schedule: Q08DX002 (ip), vehicle: Klucel (hydroxypropylcellulose) (HPC)): 185 % of control
- T/C (dose: 512.0 mg/kg/injection, schedule: Q08DX002 (oral), vehicle: Klucel (hydroxypropylcellulose) (HPC)): 108 % of control
- T/C (dose: 1024.0 mg/kg/injection, schedule: Q01DX001 (oral), vehicle: Klucel (hydroxypropylcellulose) (HPC)): 101 % of control
- T/C (dose: 1024.0 mg/kg/injection, schedule: Q04DX003 (oral), vehicle: Klucel (hydroxypropylcellulose) (HPC)): 106 % of control
- T/C (dose: 1024.0 mg/kg/injection, schedule: Q04DX003 (sc), vehicle: Klucel (hydroxypropylcellulose) (HPC)): 123 % of control
- T/C (dose: 1024.0 mg/kg/injection, schedule: Q08DX002 (oral), vehicle: Klucel (hydroxypropylcellulose) (HPC)): 115 % of control
